The values that follow come from ChEMBL document CHEMBL1201862, “PubChem BioAssay data set” (2004).

Test in all cases: NCI-60 cell line screen, 48 h
The test system of test [1] is A498.
Test [2] has as its system BT-549.
In test [3] the test system is HCC 2998.
The test system of test [4] is HCT-116.
Test [5] relates to HCT-15.
Test [6] has as its system IGROV-1.
Test [7] concerns K562.
Test [8] has as its system MCF7.
Test [9] concerns MDA-MB-231.
For test [10], the system named is MDA-MB-435.
For test [11], the system named is MDA-N.
Test [12] deals with NCI-H226.
Test [13] deals with NCI-H460.
Test [14] deals with NCI/ADR-RES.
In test [15] the test system is PC-3.
Test [16] deals with SF-295.
In test [17] the test system is SK-MEL-28.
For test [18], the system named is SK-MEL-5.
For test [19], the system named is UO-31.
Test [20] deals with SF-539.

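These data come from cells grown in 96-well plates and exposed to compound for 48 hours at five concentrations. Here, GI50 denotes the concentration required for 50% inhibition of growth.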 Active and inactive are the calls of the source. Rule as the data show it: active = GI50 up to about 1.1 µM and inactive = higher. Where only a bound is given, the exact number is not on record here.

Turning to `COc1ccc(N2C=Nn3c(nc4sc(C)c(C)c4c3=O)C2)cc1`, the GI50 was 29.4 µM (inactive) in test [1]; > 100 µM (inactive) in [2]; > 100 µM (inactive) in [3]; > 100 µM (inactive) in test [4]; greater than 100 µM in test [5]; > 100 µM (inactive) in test [6]. Besides, the GI50 in test [7], in test [8], in test [9], in test [10], in test [11] and in test [12] was > 100 µM (inactive) in each case. The GI50 in test [13], in test [14], in [15], in test [16], in [17] and in [18] was > 100 µM (inactive) throughout. Further, in test [19], the GI50 is > 100 µM (inactive).

Turning to `CC[S+]1C2=C(CC(C)(C)CC2=O)[N-]c2ccccc21` (stereo unspecified), the GI50 in [1] was > 100 µM (inactive); in test [2], > 100 µM (inactive); in [3], > 100 µM (inactive); in test [4], > 100 µM (inactive); in test [5] it was greater than 100 µM; in test [6], > 100 µM (inactive). The GI50 in [7] is > 100 µM (inactive); in [8], 24.4 µM (inactive); in [9], > 100 µM (inactive); in [10], > 100 µM (inactive); in test [11] it was > 100 µM (inactive); in test [12] it was > 100 µM (inactive). Also, the GI50 was > 100 µM (inactive) in test [13]; > 100 µM (inactive) in test [14]; > 100 µM (inactive) in [15]; 31.6 µM (inactive) in test [16]; > 100 µM (inactive) in test [17]; > 100 µM (inactive) in test [18]. The GI50 in test [19] was > 100 µM (inactive).

As to `CO[P@]1(=O)O[C@@H](c2ccccc2)[C@H](O)[C@]1(O)c1ccccc1`, the GI50 in [1] was > 100 µM (inactive); in test [2] it was > 100 µM (inactive); in test [4] it was > 100 µM (inactive); in test [5], greater than 100 µM; in test [6], > 100 µM (inactive); in [7], > 100 µM (inactive). For the same compound, the GI50 in [8], in test [9], in [10], in test [11], in test [12] and in test [13] was > 100 µM (inactive) in each case. In addition, the GI50 in test [14], in [15], in [16], in [20], in test [17] and in test [18] was > 100 µM (inactive) in each case. For the same compound, the GI50 in test [19] was > 100 µM (inactive).

Take `Cc1cn(CCC(N)C(=O)O)c(=O)[nH]c1=O` (stereo unspecified): the GI50 in test [1] was > 100 µM (inactive); in test [2], > 100 µM (inactive); in [4], > 100 µM (inactive); in [5], greater than 100 µM; in test [6], > 100 µM (inactive); in test [7] it was > 100 µM (inactive). Moreover, the GI50 in test [8], in test [9], in test [10], in test [11], in test [12] and in [13] was > 100 µM (inactive) each time. In addition, the GI50 in test [14], in test [15], in test [16], in test [20], in test [17] and in test [18] was > 100 µM (inactive) each time. Further, in test [19], the GI50 is > 100 µM (inactive).

`O=[N+]([O-])c1cccc(-c2ncnc(-c3cccc([N+](=O)[O-])c3)n2)c1`: the GI50 is 23.9 µM (inactive) in test [1]; 32.2 µM (inactive) in test [2]; > 100 µM (inactive) in test [3]; > 100 µM (inactive) in test [4]; > 100 µM (inactive) in test [6]; 48.6 µM (inactive) in [7]. Besides, the GI50 was > 100 µM (inactive) in test [8]; 34.9 µM (inactive) in test [9]; > 100 µM (inactive) in test [10]; > 100 µM (inactive) in [11]; > 100 µM (inactive) in test [12]; > 100 µM (inactive) in [14]. In addition, the GI50 in test [15] was > 100 µM (inactive); in test [16], 41.6 µM (inactive); in [17], > 100 µM (inactive); in test [18], > 100 µM (inactive); in [19], > 100 µM (inactive).

As to `OCCCN(CCc1ccc(Cl)c(Cl)c1)CCN1CCCC1`, the GI50 in test [1] is 17.3 µM (inactive); in test [2], 40.2 µM (inactive); in [3], 18 µM (inactive); in [4], 47.9 µM (inactive); in [5] it was 39.5 µM; in test [6], > 100 µM (inactive). In addition, the GI50 in [7] was 19.5 µM (inactive); in test [8], 27.4 µM (inactive); in [9] it was 32.5 µM (inactive); in test [10] it was 22.3 µM (inactive); in test [11], 17.3 µM (inactive); in [13], 51.2 µM (inactive). Besides, the GI50 is 81.5 µM (inactive) in test [14], 48.9 µM (inactive) in test [15], 34 µM (inactive) in test [16] and 50.2 µM (inactive) in test [19].

`COc1ccc(N2C(=O)C(C#N)=C(SC)C(C#N)C2=O)cc1` (stereo unspecified): the GI50 in test [1] is > 100 µM (inactive); in test [2], > 100 µM (inactive); in test [3], > 100 µM (inactive); in [4], > 100 µM (inactive); in test [5] it was greater than 100 µM; in test [6], > 100 µM (inactive). The GI50 in test [7], in test [8], in test [9], in [10], in [11] and in [12] was > 100 µM (inactive) each time. For the same compound, the GI50 in test [13], in [14], in test [15], in test [16], in test [20] and in test [18] was > 100 µM (inactive) each time.

`C[n+]1c(/C=C/c2ccc(O)c3ncccc23)[se]c2ccccc21`: the GI50 in test [1] is 11.2 µM (inactive); in [2], 6.53 µM (inactive); in [4], 2.58 µM (inactive); in test [5], 0.631 µM; in test [6], 3 µM (inactive); in [7] it was 5.11 µM (inactive). Also, the GI50 is 1.58 µM (inactive) in [8]; 0.406 µM (active) in test [9]; 6.34 µM (inactive) in test [10]; 5.98 µM (inactive) in test [11]; 11.5 µM (inactive) in test [12]; 2.51 µM (inactive) in test [13]. For the same compound, the GI50 in test [14] is 3.48 µM (inactive); in test [15], 2.92 µM (inactive); in test [16] it was 8.57 µM (inactive); in test [20], 2.86 µM (inactive); in test [17] it was 11.4 µM (inactive); in test [18], 7.76 µM (inactive). Besides, the GI50 in [19] was 2.71 µM (inactive).

With `COc1ccc([C@]23CCN(S(=O)(=O)c4ccc(C)cc4)[C@H]2[C@H](CO)C2(CC3)OCC(C)(C)CO2)cc1OC`, the GI50 in test [1] was > 100 µM (inactive); in test [2], > 100 µM (inactive); in test [3], > 100 µM (inactive); in test [4] it was > 100 µM (inactive); in test [5] it was greater than 100 µM; in test [6], > 100 µM (inactive). Further, the GI50 in test [7], in [8], in [9], in test [10], in test [11] and in test [12] was > 100 µM (inactive) in each case. The GI50 in test [13], in [14], in test [15], in test [16], in test [17] and in test [18] was > 100 µM (inactive) each time. In addition, the GI50 in test [19] is > 100 µM (inactive).

In the case of `Cn1c(=O)c2c(ncn2CCSS(=O)(=O)O)n(C)c1=O`, the GI50 was > 100 µM (inactive) in test [1]; > 100 µM (inactive) in test [2]; > 100 µM (inactive) in [4]; greater than 100 µM in [5]; > 100 µM (inactive) in test [6]; > 100 µM (inactive) in test [7]. For the same compound, the GI50 in [8] was > 100 µM (inactive); in [9], 45.9 µM (inactive); in test [10], > 100 µM (inactive); in test [11], > 100 µM (inactive); in test [12], > 100 µM (inactive); in test [13] it was 66.4 µM (inactive). The GI50 in test [14], in test [15], in test [16], in [20], in test [17] and in test [18] was > 100 µM (inactive) in each case. Moreover, in test [19], the GI50 was > 100 µM (inactive).

With `CCCCCCCCCCCCCCN` [TETRADECYLAMINE], the GI50 was > 100 µM (inactive) in [1]; > 100 µM (inactive) in test [2]; > 100 µM (inactive) in [3]; > 100 µM (inactive) in test [4]; greater than 100 µM in test [5]; > 100 µM (inactive) in [6]. For the same compound, the GI50 in [7], in [8], in test [9], in test [10], in test [11] and in [13] was > 100 µM (inactive) each time. Also, the GI50 in test [14], in [15], in test [16], in test [17] and in test [18] was > 100 µM (inactive) each time.
